The results in this text go back to patent US9822127B2, “GAK modulators as antivirals” (Katholieke Universiteit Leuven, priority 2014, dated 2017).

≈ marks a conversion by molar mass, not a printed value. Read-outs that look alike come from different tables or passages of the source.

The subject of series [1] is Huh-7.5 cells. The series is described as follows: Viability assay, alamarBlue, Huh-7.5 cells. The conditions noted are these: HCVpp entry experiment. (The colour change of resazurin is a common sign of viable cells or microbes.)
The subject of another series is Vero76. The conditions noted are these: African green monkey.
For another series, the system named is Huh-7 cells. In words: Viability assay, alamarBlue, DENV infected Huh-7 cells. The conditions noted are these: 72 hours.
Series [2] has as its system Huh-7.5 cells. The conditions noted are these: human.
The test system of series [3] is SARS Coronavirus (Virus strain: Urbani). In words: microbe, parasite or virus in culture. The series is classed as cell-based.
In a further series the target is EGFR (Homo sapiens, UniProt P00533). In words: Affinity for EGFR / anti-EGFR activity. The series is classed as binding.
The target in another series is T1, GAK (Homo sapiens, UniProt O14976).
T1 construct: made in house; host or cells: T7 phage grown in E. coli host derived from BL21
T1 sequence (O14976 1-1311): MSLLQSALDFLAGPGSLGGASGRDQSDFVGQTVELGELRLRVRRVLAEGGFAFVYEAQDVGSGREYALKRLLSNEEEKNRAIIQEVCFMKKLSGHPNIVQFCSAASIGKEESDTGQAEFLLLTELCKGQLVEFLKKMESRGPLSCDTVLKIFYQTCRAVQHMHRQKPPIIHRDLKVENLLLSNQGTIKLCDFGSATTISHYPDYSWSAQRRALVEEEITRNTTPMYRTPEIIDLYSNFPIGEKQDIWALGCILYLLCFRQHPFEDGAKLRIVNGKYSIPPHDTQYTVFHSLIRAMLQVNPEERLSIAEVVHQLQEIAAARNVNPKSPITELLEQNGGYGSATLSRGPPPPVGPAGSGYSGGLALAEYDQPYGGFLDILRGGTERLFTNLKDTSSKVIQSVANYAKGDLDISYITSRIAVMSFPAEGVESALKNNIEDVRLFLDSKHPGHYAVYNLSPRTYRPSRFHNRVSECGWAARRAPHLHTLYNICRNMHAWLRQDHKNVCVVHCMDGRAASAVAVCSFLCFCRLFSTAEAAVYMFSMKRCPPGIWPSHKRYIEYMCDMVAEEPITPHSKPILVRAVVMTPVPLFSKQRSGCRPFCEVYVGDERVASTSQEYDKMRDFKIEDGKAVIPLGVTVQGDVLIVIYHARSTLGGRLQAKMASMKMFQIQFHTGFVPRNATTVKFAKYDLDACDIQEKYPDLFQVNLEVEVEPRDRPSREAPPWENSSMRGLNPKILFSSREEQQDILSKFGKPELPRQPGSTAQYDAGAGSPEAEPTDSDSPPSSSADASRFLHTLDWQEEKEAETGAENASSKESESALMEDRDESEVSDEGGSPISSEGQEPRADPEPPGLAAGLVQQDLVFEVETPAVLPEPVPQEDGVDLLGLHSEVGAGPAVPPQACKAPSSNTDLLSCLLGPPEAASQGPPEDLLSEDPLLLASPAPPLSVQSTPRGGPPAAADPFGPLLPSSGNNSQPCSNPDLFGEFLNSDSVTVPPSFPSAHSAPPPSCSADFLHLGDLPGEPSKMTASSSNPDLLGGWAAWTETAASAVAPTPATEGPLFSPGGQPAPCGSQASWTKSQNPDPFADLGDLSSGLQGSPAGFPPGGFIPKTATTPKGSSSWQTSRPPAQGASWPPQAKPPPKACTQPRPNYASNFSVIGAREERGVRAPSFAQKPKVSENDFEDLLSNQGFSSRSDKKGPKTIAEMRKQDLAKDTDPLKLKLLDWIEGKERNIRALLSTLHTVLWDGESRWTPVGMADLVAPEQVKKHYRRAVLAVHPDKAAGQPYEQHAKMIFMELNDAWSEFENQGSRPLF
The series is described as follows: GAK binding assay (T7 phage kinase competition binding). Particulars: for remaining binding at 10 µM: single concentration of 10 μM, lower numbers indicate stronger hits.

The next series has as its system HCV RNA replication. The series is described as follows: HCV RNA replication by luciferase assays. The series is classed as cell-based. Particulars: 72 hours postelectroporation, daily treatment.
Another series can be described thus: in vitro. Particulars: African green monkey.
A further series concerns AP2M1 phosphorylation. The series is described as follows: AP2M1 phosphorylation by Western analysis in Huh-7.5 cells. The series is classed as cell-based, human. The conditions noted are these: calyculin A, vs DMSO control.
The next series relates to cell culture grown DENV. In words: DENV infection of Huh-7 cells, Renilla luciferase assay. The conditions noted are these: Dengue virus, Huh-7, 72 h, read-out: EC50, DENV infection. The series is classed as cell-based.
The subject of series [4] is VSV-EB GFP-reporter virus (VSV bearing surface glycoprotein of EBOV). The series is classed as cell-based, Ebola virus.
The mark [5] stands for this setting: Severe acute respiratory syndrome coronavirus, Vero 76.

Sequence of EGFR (P00533 25-1210): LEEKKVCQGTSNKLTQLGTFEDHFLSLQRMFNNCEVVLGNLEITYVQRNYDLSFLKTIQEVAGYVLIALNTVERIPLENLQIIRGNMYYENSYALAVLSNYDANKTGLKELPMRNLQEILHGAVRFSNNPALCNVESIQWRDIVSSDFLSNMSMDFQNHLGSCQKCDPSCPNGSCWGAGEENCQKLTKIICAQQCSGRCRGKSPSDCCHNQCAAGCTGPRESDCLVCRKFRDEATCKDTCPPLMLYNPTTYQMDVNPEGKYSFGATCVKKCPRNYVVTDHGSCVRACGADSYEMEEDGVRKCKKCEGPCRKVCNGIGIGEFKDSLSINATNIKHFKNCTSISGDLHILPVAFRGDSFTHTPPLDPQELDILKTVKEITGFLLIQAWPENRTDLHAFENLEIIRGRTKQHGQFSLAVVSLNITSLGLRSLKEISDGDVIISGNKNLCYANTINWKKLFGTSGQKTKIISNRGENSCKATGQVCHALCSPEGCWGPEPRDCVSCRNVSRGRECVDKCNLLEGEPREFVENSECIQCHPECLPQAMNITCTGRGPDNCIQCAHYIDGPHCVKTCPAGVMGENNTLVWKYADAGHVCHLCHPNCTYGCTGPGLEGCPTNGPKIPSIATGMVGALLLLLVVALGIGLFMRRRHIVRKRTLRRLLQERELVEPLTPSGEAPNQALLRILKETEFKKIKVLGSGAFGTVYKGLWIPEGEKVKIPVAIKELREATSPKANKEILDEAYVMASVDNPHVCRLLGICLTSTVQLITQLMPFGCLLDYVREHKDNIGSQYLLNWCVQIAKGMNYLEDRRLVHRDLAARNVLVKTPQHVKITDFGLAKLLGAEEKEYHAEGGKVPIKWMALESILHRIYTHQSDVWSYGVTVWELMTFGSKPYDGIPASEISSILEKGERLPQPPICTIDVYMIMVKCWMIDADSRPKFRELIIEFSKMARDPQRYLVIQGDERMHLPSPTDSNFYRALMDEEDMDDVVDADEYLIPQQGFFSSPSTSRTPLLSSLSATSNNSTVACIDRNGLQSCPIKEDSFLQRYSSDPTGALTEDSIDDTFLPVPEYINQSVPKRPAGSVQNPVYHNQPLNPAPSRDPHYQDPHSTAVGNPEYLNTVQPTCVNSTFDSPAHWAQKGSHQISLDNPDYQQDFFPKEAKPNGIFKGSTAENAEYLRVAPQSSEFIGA

For `COc1cc(-c2cnc3c(N4CCOCC4)snc3c2)cc(OC)c1OC` [Example 49, 4-(6-(3,4,5-Trimethoxyphenyl)isothiazolo[4,3-b]pyridin-3-yl)morpholine], the “effect on cellular viability” value in the series on Huh-7.5 cells [1] and with Huh-7 cells was “minimal effect on cellular viability” each time. Further, the CC50 was found to be 50 mg/L (≈ 129 µM) with Vero76, 23.3 ± 3.4 µM with Huh-7.5 cells [2] and 34 mg/L (≈ 87.8 µM) in “in vitro”. In addition, the figures for the EC50 (in series [3]; in series [3] (setting [5]); in the series with cell culture grown DENV) were 0.77 mg/L (≈ 1.99 µM), 1.2 mg/L (≈ 3.1 µM) and 0.8 µM, respectively. The anti-EGFR activity entry on EGFR is on record as “lack anti-EGFR activity”. This compound had a Kd at GAK of 0.0083 µM. Further, the remaining binding at 10 µM at GAK (read-out: % Ctrl) worked out at 0%. Also, the “effect on HCV RNA replication” value in the series on HCV RNA replication is given as “did not affect HCV RNA replication”. For the same compound, the “p-AP2M1 to AP2M1 ratios” value with AP2M1 phosphorylation is on record as “reduced by either 49 or 50 in a dose-dependent manner”.

For the compound `COc1cc(-c2cnc3c(N4CCOCC4)snc3c2)ccc1N` [Example 50, 2-Methoxy-4-(3-morpholinoisothiazolo[4,3-]pyridin-6-yl)aniline], the CC50 is 13 mg/L (≈ 38 µM) with Vero76 and 15 mg/L (≈ 43.8 µM) in “in vitro”. The concentration for a half-maximal effect (EC50) in series [3] came to 3.2 mg/L (≈ 9.35 µM); in [3] (setting [5]), 2.4 mg/L (≈ 7.01 µM); in the series with cell culture grown DENV it was 2.6 µM. For the same compound, the anti-EGFR activity result on EGFR is reported as “lack anti-EGFR activity”. At GAK, this compound gave a Kd of 0.0089 µM. The % of control binding at 10 µM at GAK (read-out: % Ctrl) was 0%. In addition, the “effect on HCV RNA replication” value with HCV RNA replication was “did not affect HCV RNA replication”. Moreover, the “effect on VSV-EB infection, treatment alone” value in [4] is “minimal inhibition of infection”.

Consider `c1cc(-c2cnc3c(N4CCOCC4)snc3c2)co1` [Example 52, 4-(6-(Furan-3-yl)isothiazolo[4,3-b]pyridin-3-yl)morpholine], for which the CC50 with Vero76 and in the series “in vitro” was more than 100 mg/L in each case. Also, the values for the EC50 in series [3] and in series [3] (setting [5]) were 49 mg/L (≈ 171 µM) and 44 mg/L (≈ 153 µM), respectively. The remaining binding at 10 µM on GAK (read-out: % Ctrl) was 0.15%.

Consider `COc1ccc(-c2cnc3c(NCCc4ccccc4)snc3c2)cc1OC` [Example 74, 6-(3,4-dimethoxyphenyl)-N-phenethylisothiazolo[4,3-b]pyridin-3-amine], for which the CC50 with Vero76 and in “in vitro” was more than 100 mg/L each time. In addition, the figures for the EC50 in series [3] and in [3] (setting [5]) were 5.8 mg/L (≈ 14.8 µM) and 4.5 mg/L (≈ 11.5 µM), respectively. Moreover, at GAK (read-out: % Ctrl), the remaining binding at 10 µM turned out to be 81%.

The term EC50 denotes the concentration at which the effect is half-maximal. The Kd is the constant that tells how readily two partners part at equilibrium.
